The values below come from patent publication US5627203A, “Tricyclic oxime ethers” (Adir et Compagnie, priority 1994, dated 1997).

Format in all cases: binding
The target of one test is T1, 5-HT1B receptors (Rattus norvegicus, UniProt P28564).
T1 construct: rat cortex, striatum, and globus pallidus homogenates; from tissue; host or cells: rat cortex, striatum and globus pallidus
Nature of the test: Displacement of 5-hydroxytryptamine at 5-HT1B receptors. The following applies: rat cortex, striatum, and globus pallidus homogenates. The method, then: (§1) A-2: Study of the binding of the compounds of the invention to the serotonin reuptake site as well as to 5-HT1, 5-HT1A, 5-HT1B, 5-HT1D, 5-HT2, 5-HT2C, 5-HT4 serotoninergic receptors.
(§2) The binding of the compounds of the invention is measured in accordance with conventional methods.
for 5-HT1B receptors, by the displacement of 5-hydroxytryptamine in rat cortex, striatum, and globus pallidus homogenates, […]

Another test addresses T2, serotonin reuptake site (Rattus norvegicus, UniProt P31652).
T2 construct: rat brain from which the cerebellum has been removed; from tissue; host or cells: rat brain without cerebellum
Nature of the test: Displacement of 3H-paroxetine at the serotonin reuptake site. The following applies: rat brain without cerebellum, read-out: IC50, serotonin reuptake sites. Here is the method:
as §1, §2
for the serotonin reuptake site, by the displacement of ^3 H-paroxetinein rat brain from which the cerebellum has been removed, […]
A general note: In a radioligand displacement assay an active substance lowers the binding of a labelled ligand.

The target in the next test is 5-HT1D receptors. The test can be described thus: Displacement of 5-OH-tryptamine at 5-HT1D receptors. The note with it: rat cortex, striatum and globus pallidus homogenates. Here is the method: as §1, §2
for 5-HT1D receptors, by the displacement of 5-OH-tryptamine in rat cortex, striatum and globus pallidus homogenates, […]

The target of another test is T3, 5-HT2C receptors (Rattus norvegicus, UniProt P08909).
T3 construct: rat frontal cortex and hippocampus homogenates; from tissue; host or cells: rat frontal cortex and hippocampus
T3 sequence (P08909 33-460): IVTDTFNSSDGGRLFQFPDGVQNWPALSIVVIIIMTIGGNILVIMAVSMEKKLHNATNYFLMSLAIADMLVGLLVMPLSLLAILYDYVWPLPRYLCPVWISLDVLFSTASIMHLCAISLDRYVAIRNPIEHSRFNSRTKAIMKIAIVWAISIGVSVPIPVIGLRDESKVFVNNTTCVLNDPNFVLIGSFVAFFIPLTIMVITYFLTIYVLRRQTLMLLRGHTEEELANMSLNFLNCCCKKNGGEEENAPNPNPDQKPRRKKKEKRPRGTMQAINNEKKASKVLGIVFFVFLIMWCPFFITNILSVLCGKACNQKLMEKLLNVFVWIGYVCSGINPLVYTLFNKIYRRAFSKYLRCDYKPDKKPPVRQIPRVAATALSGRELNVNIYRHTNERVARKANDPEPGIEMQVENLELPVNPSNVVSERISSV
The test can be described thus: Displacement of N-methylmesulergine at 5-HT2C receptors. The note with it: rat frontal cortex and hippocampus homogenates. The method, then: as §1, §2
for 5-HT2C receptors, by the displacement of N-methylmesulergine in rat frontal cortex and hippocampus homogenates, […]

In the next test the target is T4, 5-HT1A receptors (Rattus norvegicus, UniProt P19327).
T4 construct: rat hippocampus homogenates; from tissue; host or cells: rat hippocampus
T4 sequence (P19327 1-422): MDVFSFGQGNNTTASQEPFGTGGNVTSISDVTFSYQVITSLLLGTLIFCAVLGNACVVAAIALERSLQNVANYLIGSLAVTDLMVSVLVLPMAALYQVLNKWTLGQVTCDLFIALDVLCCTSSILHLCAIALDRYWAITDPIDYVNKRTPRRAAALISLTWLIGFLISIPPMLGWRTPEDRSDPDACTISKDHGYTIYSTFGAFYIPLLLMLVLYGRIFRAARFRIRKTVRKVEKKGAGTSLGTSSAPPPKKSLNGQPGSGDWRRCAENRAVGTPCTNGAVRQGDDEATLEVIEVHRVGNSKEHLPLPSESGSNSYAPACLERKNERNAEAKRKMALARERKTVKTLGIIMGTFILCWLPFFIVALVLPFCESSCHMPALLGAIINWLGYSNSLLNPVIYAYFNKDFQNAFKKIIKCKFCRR
The test can be described thus: Displacement of 8-OH-DPAT at 5-HT1A receptors. The following applies: rat hippocampus homogenates. Here is the method: as §1, §2
for 5-HT1A receptors, by the displacement of 8-OH-DPAT in rat hippocampus homogenates, […]

The target in a further test is T5, 5-HT3 receptors (Rattus norvegicus, UniProt P35563).
T5 construct: rat area postrema homogenates; from tissue; host or cells: rat area postrema
T5 sequence (P35563 24-483): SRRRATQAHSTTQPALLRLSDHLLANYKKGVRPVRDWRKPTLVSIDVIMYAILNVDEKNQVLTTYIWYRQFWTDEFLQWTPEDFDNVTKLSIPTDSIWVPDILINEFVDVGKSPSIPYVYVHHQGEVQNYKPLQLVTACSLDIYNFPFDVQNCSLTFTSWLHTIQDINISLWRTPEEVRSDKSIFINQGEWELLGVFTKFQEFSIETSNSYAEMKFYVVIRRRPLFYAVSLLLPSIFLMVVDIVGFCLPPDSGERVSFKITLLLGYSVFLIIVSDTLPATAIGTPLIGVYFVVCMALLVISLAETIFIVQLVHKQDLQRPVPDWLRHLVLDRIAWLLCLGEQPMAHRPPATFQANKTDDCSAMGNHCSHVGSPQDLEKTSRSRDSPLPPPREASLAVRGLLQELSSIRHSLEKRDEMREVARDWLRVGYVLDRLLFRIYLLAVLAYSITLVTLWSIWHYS
The test can be described thus: Displacement of 3H-zacopride at 5-HT3 receptors. The note with it: 0.3-0.4 nM 3H-zacopride, rat area postrema homogenates, pH 7.4, 25° C., 30 minutes. The method, then:
A-1: Study of the binding of the compounds of the invention to 5-HT3 serotoninergic receptors
The binding of the compounds of the invention to 5-HT3 receptors was determined for each compound by measuring the displacement of ^3 H-zacopride (specific ligand for 5-HT3 receptors) in rat area postrema homogenates.
Aliquot amounts (50-100 μl) of a membrane suspension (2.5-5.0 mg of protein/cm^3) are incubated for 30 minutes at 25° C. in a Tris-HCl buffer, 25 mM, pH 7,4, in the presence of 0.3-0.4 nM 3^H -zacopride (83 ci/mmol) (total volume: 0.5 cm^3). The incubation is terminated by filtering the samples through Whatman GF/B filters which are then washed and dried. The radioactivity retained on the filters is finally calculated by spectrometry in liquid medium (Aquasol). The non-specific binding is evaluated under the same conditions using samples containing in addition 1 μM of ondansetron (5-HT3 antagonist). The displacement curves obtained by adding increasing concentrations of a test compound to the incubation medium are analysed to determine the affinity of the test compounds for 5-HT3 receptors.

The target in the next test is 5-HT1 receptors. The test can be described thus: Displacement of 5-OH tryptamine at 5-HT1 receptors. The note with it: pig frontal cortex and striatum. The method, then: as §1, §2
for 5-HT1 receptors, by the displacement of 5-OH tryptamine in pig frontal cortex and striatum, […]

The target of a further test is T6, 5-HT2 receptors (Rattus norvegicus, UniProt P14842).
T6 construct: rat frontal cortex homogenates; from tissue; host or cells: rat frontal cortex
Nature of the test: Displacement of aminoiodoketaneserine at 5-HT2 receptors. The following applies: rat frontal cortex homogenates. The method, then: as §1, §2
for 5-HT2 receptors, by the displacement of aminoiodoketaneserine in rat frontal cortex homogenates, […]

Each structure is given as a SMILES string. A value given as a limit tells only on which side of the number the result lay.

T2 sequence (P31652 whole entry): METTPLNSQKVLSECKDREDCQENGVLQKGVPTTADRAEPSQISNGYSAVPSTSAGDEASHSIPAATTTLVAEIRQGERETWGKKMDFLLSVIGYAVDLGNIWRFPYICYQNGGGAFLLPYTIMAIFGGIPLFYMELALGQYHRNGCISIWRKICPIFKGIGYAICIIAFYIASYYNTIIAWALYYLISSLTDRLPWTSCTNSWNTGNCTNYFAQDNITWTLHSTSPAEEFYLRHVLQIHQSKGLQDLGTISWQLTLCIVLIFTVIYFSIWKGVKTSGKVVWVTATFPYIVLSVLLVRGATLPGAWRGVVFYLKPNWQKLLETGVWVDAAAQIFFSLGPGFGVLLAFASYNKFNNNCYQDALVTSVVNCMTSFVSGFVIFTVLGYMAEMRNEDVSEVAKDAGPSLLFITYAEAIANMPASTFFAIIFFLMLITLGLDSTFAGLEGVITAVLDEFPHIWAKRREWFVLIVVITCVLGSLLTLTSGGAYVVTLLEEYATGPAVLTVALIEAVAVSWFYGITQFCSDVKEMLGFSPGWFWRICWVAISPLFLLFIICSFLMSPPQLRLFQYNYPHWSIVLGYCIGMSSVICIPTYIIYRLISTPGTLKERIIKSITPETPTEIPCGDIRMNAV
T1 sequence (P28564 whole entry): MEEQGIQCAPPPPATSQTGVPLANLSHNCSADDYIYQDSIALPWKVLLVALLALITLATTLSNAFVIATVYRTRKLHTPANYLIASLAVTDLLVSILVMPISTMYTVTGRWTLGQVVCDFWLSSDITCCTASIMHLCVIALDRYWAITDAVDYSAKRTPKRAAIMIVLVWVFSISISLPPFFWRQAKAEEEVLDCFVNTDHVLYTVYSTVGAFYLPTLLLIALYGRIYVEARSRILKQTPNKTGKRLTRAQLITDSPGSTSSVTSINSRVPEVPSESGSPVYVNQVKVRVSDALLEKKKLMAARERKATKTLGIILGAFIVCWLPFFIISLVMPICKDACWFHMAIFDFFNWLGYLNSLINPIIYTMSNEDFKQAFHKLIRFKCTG
T6 sequence (P14842 whole entry): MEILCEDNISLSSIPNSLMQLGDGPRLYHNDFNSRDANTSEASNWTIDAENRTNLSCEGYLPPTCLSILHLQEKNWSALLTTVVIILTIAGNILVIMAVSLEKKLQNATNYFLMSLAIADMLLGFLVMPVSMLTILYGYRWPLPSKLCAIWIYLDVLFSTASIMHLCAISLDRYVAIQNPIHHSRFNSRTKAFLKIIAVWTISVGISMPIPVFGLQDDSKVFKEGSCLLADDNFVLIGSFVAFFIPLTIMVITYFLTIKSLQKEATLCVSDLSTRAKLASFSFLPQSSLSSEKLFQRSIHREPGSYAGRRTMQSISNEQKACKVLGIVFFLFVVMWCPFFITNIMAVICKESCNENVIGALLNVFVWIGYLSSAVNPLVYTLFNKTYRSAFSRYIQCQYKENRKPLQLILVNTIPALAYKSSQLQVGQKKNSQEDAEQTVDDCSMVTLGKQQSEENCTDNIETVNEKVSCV

For orientation: IC50 means the point on the concentration scale where inhibition reaches its midpoint. For `Cc1ccc2c(c1)C(=NOCC(C)N(C)C)c1cccn1-2` (centres unmarked) [Example 52], the IC50 amounted to 3.8 µM on 5-HT1B receptors; 13 µM on serotonin reuptake site; 0.81 µM on 5-HT1D receptors; 2.3 µM at 5-HT2C receptors; 3.3 µM on 5-HT1A receptors; 0.044 µM on 5-HT3 receptors. Besides, the figures for the IC50 on 5-HT1 receptors and on 5-HT2 receptors were 2 µM and 8.4 µM, respectively.

As for `CN(C)CCON=C1c2cc(Cl)ccc2-n2cccc21` [Example 49, 7-Chloro-9-{[2-(N,N-dimethylamino)ethoxy]imino}pyrrolo[1,2-a]indole], the IC50 on 5-HT1B receptors is 1.4 µM; on serotonin reuptake site, 12 µM; on 5-HT1D receptors, 3.1 µM; on 5-HT2C receptors, 11 µM; on 5-HT1A receptors, 21 µM; at 5-HT3 receptors, 0.086 µM. For the same compound, the IC50 worked out at 2.4 µM on 5-HT1 receptors and 7.6 µM on 5-HT2 receptors.

`Cc1csc2c1-n1cccc1/C2=N/OCC(C)CN(C)C` (centres unmarked) [Example 23]: the IC50 on 5-HT1B receptors stood at 24 µM; on serotonin reuptake site it was 5 µM; at 5-HT1D receptors, 11 µM; on 5-HT2C receptors, 2 µM; at 5-HT1A receptors, 52 µM; at 5-HT3 receptors, 0.0054 µM. Moreover, the IC50 is 9.6 µM on 5-HT1 receptors and 14 µM on 5-HT2 receptors.

On to `CN(C)CCON=C1c2sccc2-n2cccc21` [Example 4], for which the IC50 at 5-HT1B receptors was found to be 0.61 µM; at serotonin reuptake site, 0.89 µM; at 5-HT1D receptors it was 0.41 µM; on 5-HT2C receptors, 0.82 µM; at 5-HT1A receptors, 0.48 µM; on 5-HT1 receptors, 0.55 µM. This compound yielded an IC50 at 5-HT2 receptors of 5 µM.

In the case of `Cc1csc2c1-n1cccc1C2=NOCCN1CCCC1` [Example 17], the IC50 at 5-HT1B receptors amounted to 3.6 µM; at serotonin reuptake site, 0.3 µM; at 5-HT1D receptors it was 3.2 µM; on 5-HT2C receptors it was 0.71 µM; at 5-HT1A receptors it was 1.6 µM; at 5-HT3 receptors, 0.002 µM. The results for the IC50 at 5-HT1 receptors and at 5-HT2 receptors were 3 µM and 3.7 µM, respectively.

As to `Cc1csc2c1-n1cccc1/C2=N/OCCN` [Example 40, (Z)-3-Methyl-8-[(2-amino-ethoxy)imino]thieno[2,3-d]pyrrolo[1,2-a]pyrrole], the IC50 at 5-HT1B receptors was determined as 0.92 µM; on serotonin reuptake site it was 0.58 µM; at 5-HT1D receptors it was 2.7 µM; at 5-HT2C receptors, 0.18 µM; at 5-HT1A receptors, 3.1 µM; at 5-HT1 receptors, 0.9 µM. The compound also gave an IC50 at 5-HT2 receptors of 15 µM.

As for `CC(CON=C1c2ccccc2-n2cccc21)N(C)C` (centres unmarked) [Example 55], the IC50 is 4.4 µM at 5-HT1B receptors; 0.32 µM at serotonin reuptake site; 1.4 µM on 5-HT1D receptors; 4.1 µM at 5-HT2C receptors; 3.8 µM at 5-HT1A receptors; 0.0053 µM at 5-HT3 receptors. For the same compound, the IC50 came to 2.8 µM at 5-HT1 receptors and 12 µM on 5-HT2 receptors.

For `CN(C)CCON=C1c2ccccc2-n2cccc21` [Example 54], the IC50 at 5-HT1B receptors was determined as 1.1 µM; on serotonin reuptake site, 0.93 µM; at 5-HT1D receptors, 0.69 µM; on 5-HT2C receptors, 1.4 µM; on 5-HT1A receptors, 1.1 µM; on 5-HT1 receptors it was 0.14 µM. The IC50 at 5-HT2 receptors was found to be 14 µM.

Regarding `Cc1csc2c1-n1cccc1C2=NOCCN1CCCCC1` [Example 18], the IC50 at 5-HT1B receptors is 14 µM; at serotonin reuptake site, 0.26 µM; at 5-HT1D receptors, 7.5 µM; on 5-HT2C receptors, 1.2 µM; at 5-HT1A receptors, 5.7 µM; at 5-HT3 receptors, 0.004 µM. Moreover, the IC50 was determined as 5.1 µM at 5-HT1 receptors and 5.2 µM at 5-HT2 receptors.

Turning to `CCN(CC)CCON=C1c2scc(C)c2-n2cccc21` [Example 15], the IC50 is 6.4 µM on 5-HT1B receptors; 0.13 µM on serotonin reuptake site; 4 µM on 5-HT1D receptors; 0.84 µM at 5-HT2C receptors; 21 µM on 5-HT1A receptors; 0.005 µM at 5-HT3 receptors. Also, the IC50 at 5-HT1 receptors came to 11 µM; at 5-HT2 receptors, 13 µM.

In the case of `Cc1ccc2c(c1)C(=NOCCC1CCCN1C)c1cccn1-2` (centres unmarked) [Example 53], the IC50 is 35 µM at 5-HT1B receptors; 24 µM on serotonin reuptake site; 5.5 µM on 5-HT1D receptors; 6 µM on 5-HT2C receptors; 14 µM on 5-HT1A receptors; 0.037 µM at 5-HT3 receptors. The IC50 on 5-HT1 receptors was determined as 8.3 µM; at 5-HT2 receptors, 22 µM.

For `CN1CCCC1CON=C1c2sccc2-n2cccc21` (racemic) [Example 13], the IC50 on 5-HT1B receptors is 31 µM; on serotonin reuptake site it was 0.6 µM; at 5-HT1D receptors it was 11 µM; on 5-HT2C receptors, 1 µM; at 5-HT1A receptors it was above 100 µM; on 5-HT3 receptors it was 0.002 µM. For the same compound, the IC50 on 5-HT1 receptors was 16 µM; on 5-HT2 receptors it was 14 µM.

As to `Cc1csc2c1-n1cccc1/C2=N/OCCNCc1ccccc1` [Example 41, (Z)-3-Methyl-8-{[2-(N-benzylamino)ethoxy]imino}thieno[2,3-d]pyrrolo[1,2-a]-pyrrole], the IC50 at 5-HT1B receptors is 4.4 µM; at serotonin reuptake site it was 0.11 µM; at 5-HT1D receptors it was 11 µM; at 5-HT2C receptors it was 0.413 µM; on 5-HT1A receptors, 9.2 µM; on 5-HT1 receptors, 2.7 µM. The same compound yielded an IC50 at 5-HT2 receptors of 4.1 µM.

Turning to `Cc1csc2c1-n1cccc1/C2=N/OCCCN(C)C` [Example 14], the IC50 on 5-HT1B receptors was determined as 32 µM; at serotonin reuptake site, 1.1 µM; at 5-HT1D receptors, 7 µM; on 5-HT2C receptors, 18 µM; on 5-HT1A receptors it was 22 µM; at 5-HT1 receptors it was 11 µM. Also, the IC50 at 5-HT2 receptors turned out to be 42 µM.
